Experimental data as given in US6372209B1, “Vaginal lactobacillus medicant” (Gyne Logix, Inc., priority 1997, dated 2002).

Key:
[1] = Purity and genetic fingerprint (Rep PCR) of suppository lots
Description: (1.1) Purity of the strain: The purity of the suppository strain (i.e., lack of presence of contaminating organisms in a culture) was confirmed by specifically distinguishing the suppository strain from other strains using DNA fingerprinting techniques. DNA fingerprinting was performed by Repetitive Sequence Polymerase Chain Reaction (Rep PCR). In order to determine whether the Rep PCR method could distinguish the suppository strain (CTV-05) from endogenous L. crispatus, 40 strains of L. crispatus were recovered from the vagina of women of child-bearing age and compared to CTV-05. L. crispatus species identity was determined using whole chromosomal DNA homology to control strain L. crispatus ATCC 33197. […] The suppository strain (CTV-05) was distinguished from the others by four bands in the 2500-1500 base pair region. In this region, the CTV-05 fingerprint consists of intense bands at 2500 and 1500 and less amplified bands at 2000 and 1736 base pairs (data not shown).
Six different lots of L. crispatus CTV-05 prepared over a 2 year period were evaluated for purity and stability of the genetic fingerprint. […] Further, there has been no lot-to-lot variability in the “fingerprint” of the DNA of the suppository strain (data not shown).

[2] = Stability of viability: room temperature and refrigerated storage (plate count, MRS agar); assay type: physicochemical
Description: (1.5) Stability of viability: Samples of each evaluated strain were retained for shelf-life studies at room temperature and refrigerated storage. At selected time intervals, samples were tested for the number of colony-forming-units using the Plate Count method with MRS agar.
Strain CTV-05 was tested in a gelatin capsule suppository during storage at 55° C., 45° C., 35° C. and at room and refrigeration temperatures. […] Between the fourth and ninth weeks counts dropped to 9.8×10^7 per suppository and have remained at 10^7 for 25 months. […]

normal, healthy women = experiment: Open study: vaginal colonization of healthy women by suppository; assay type: in vivo, human
Description: In this open study, a Lactobacillus suppository containing approximately 10^9 viable, H2O2-producing Lactobacillus crispatus CTV-05 was used by 9 women twice daily for three days. All 9 women were free of genital infection at enrollment, and 8 of the 9 women had endogenous Lactobacilli at enrollment.
Since many women are colonized vaginally and rectally by Lactobacilli, the technique, Repetitive Sequence Polymerase Chain Reaction (Rep PCR), was used to “fingerprint” the suppository strain of L. crispatus and thereby distinguish the suppository strain from endogenous strains of Lactobacilli.

H2O2 production = experiment: Production of H2O2 (TMB medium or EM strips); conditions: gelatin capsule suppository, storage period up to 25 months
Description: (1.4) Production of H2O2: Strains were inoculated onto tetramethylbenzidine medium (TMB) and incubated at 37° C. for 2-3 days under anaerobic conditions. H2O2-producing colonies produce a blue pigment upon exposure to ambient air. Alternatively, H2O2-detecting strips from EM Science were used. The reagent impregnated portion of the strip was applied to a Lactobacillus colony and the intensity of the resulting blue color served as a quantitative measure of H2O2 concentration.

women = experiment: Pooled clinical trials with the CTV-05 suppository (Examples 5-7); assay type: in vivo, human
Description: The studies presented in Examples 5 6, and 7 have shown that the Lactobacilli of the present invention can be used in a suppository to recolonize the vagina with Lactobacilli. Over fifty women have been included in clinical trials with the Lactobacillus crispatus CTV-05 suppository. […] Furthermore, the present inventors have developed fingerprinting methods which allow the identification of the suppository strain of L. crispatus in human trials.

[3] = Accelerated shelf-life of the air-dried suppository at 35, 45 and 55° C.; assay type: physicochemical; conditions: for loss of viability: over about 2.3 days
Description: Strain CTV-05 was tested in a gelatin capsule suppository during storage at 55° C., 45° C., 35° C. and at room and refrigeration temperatures. […] Between the fourth and ninth weeks counts dropped to 9.8×10^7 per suppository and have remained at 10^7 for 25 months.
At 35° C., the product lost less than 1 log of viability over about 2.3 days. At 45° C., the product lost about 2 logs of viability over about 2.3 days. At 55° C., the product lost viability rapidly within 0.5 days.

[4] = system: women who had bacterial vaginosis; experiment: Suppository as treatment for bacterial vaginosis; assay type: in vivo, human
Description: In this study, 13 women who had bacterial vaginosis were given Lactobacillus crispatus CTV-05 suppositories twice daily for seven days. The purpose of this study was to evaluate whether Lactobacillus suppositories could be used as a treatment for bacterial vaginosis. Only 1 of 10 women who returned for follow-up was cured of bacterial vaginosis at the one week follow-up visit.

Substance: Lactobacillus crispatus CTV-05
- contaminants in lots ([1]; six lots prepared over a 2 year period, enriched chopped meat broth, anaerobic): free of contaminants
- genetic fingerprint (Rep PCR) between lots ([1]; small scale and scale-up lots): identical fingerprints
- CFUs per Suppository ([2]; Refrigerated (2-8° C.), 1 month): 5.20E+08 CFUs per Suppository
- CFUs per Suppository ([2]; Refrigerated (2-8° C.), 2 months): 2.20E+08 CFUs per Suppository
- CFUs per Suppository ([2]; Refrigerated (2-8° C.), 3 months): 2.30E+08 CFUs per Suppository
- CFUs per Suppository ([2]; Refrigerated (2-8° C.), 5 months): 2.80E+08 CFUs per Suppository
- CFUs per Suppository ([2]; Refrigerated (2-8° C.), 6 months): 1.70E+08 CFUs per Suppository
- CFUs per Suppository ([2]; Refrigerated (2-8° C.), 7 months): 2.60E+08 CFUs per Suppository
- CFUs per Suppository ([2]; Refrigerated (2-8° C.), 9 months): 3.10E+08 CFUs per Suppository
- CFUs per Suppository ([2]; Refrigerated (2-8° C.), 11 months): 2.50E+08 CFUs per Suppository
- CFUs per Suppository ([2]; Refrigerated (2-8° C.), 15 months): 9.20E+07 CFUs per Suppository
- CFUs per Suppository ([2]; Refrigerated (2-8° C.), 18 months): 1.50E+07 CFUs per Suppository
- CFUs per Suppository ([2]; Refrigerated (2-8° C.), 25 months): 5.00E+08 CFUs per Suppository
- CFUs per Suppository ([2]; Room Temperature (25° C. ± 5° C.), 1 month): 1.30E+08 CFUs per Suppository
- CFUs per Suppository ([2]; Room Temperature (25° C. ± 5° C.), 1 week): 3.80E+08 CFUs per Suppository
- CFUs per Suppository ([2]; Room Temperature (25° C. ± 5° C.), 2 months): 9.80E+07 CFUs per Suppository
- CFUs per Suppository ([2]; Room Temperature (25° C. ± 5° C.), 2 weeks): 3.20E+08 CFUs per Suppository
- CFUs per Suppository ([2]; Room Temperature (25° C. ± 5° C.), 3 months): 1.83E+07 CFUs per Suppository
- CFUs per Suppository ([2]; Room Temperature (25° C. ± 5° C.), 3 weeks): 3.05E+08 CFUs per Suppository
- CFUs per Suppository ([2]; Room Temperature (25° C. ± 5° C.), 4 months): 3.25E+07 CFUs per Suppository
- CFUs per Suppository ([2]; Room Temperature (25° C. ± 5° C.), 5 months): 3.80E+07 CFUs per Suppository
- CFUs per Suppository ([2]; Room Temperature (25° C. ± 5° C.), 6 months): 1.70E+07 CFUs per Suppository
- CFUs per Suppository ([2]; Room Temperature (25° C. ± 5° C.), 7 months): 1.60E+07 CFUs per Suppository
- CFUs per Suppository ([2]; Room Temperature (25° C. ± 5° C.), 9 months): 4.70E+07 CFUs per Suppository
- CFUs per Suppository ([2]; Room Temperature (25° C. ± 5° C.), 11 months): 2.80E+07 CFUs per Suppository
- CFUs per Suppository ([2]; Room Temperature (25° C. ± 5° C.), 15 months): 2.20E+06 CFUs per Suppository
- CFUs per Suppository ([2]; Room Temperature (25° C. ± 5° C.), 18 months): 4.70E+06 CFUs per Suppository
- CFUs per Suppository ([2]; Room Temperature (25° C. ± 5° C.), 25 months): 1.60E+07 CFUs per Suppository
- colony counts, stable level ([2]; refrigerated product, for 5 months): 10^8 per suppository
- colony counts after drop ([2]; room temperature, between the fourth and ninth weeks): 9.8×10^7 per suppository
- colony counts, stable level ([2]; room temperature, for 4 weeks): 10^8 per suppository
- colony counts, level maintained ([2]; room temperature, for 25 months): 10^7
- CFU value at which product remained stable after drop from 10^8 at 2 months ([2]; stored at room temperature (25° C. +5° C.), for 25 months): 10^7 CFU
- CFU value at which product was stable ([2]; stored refrigerated (2-8° C.), for 25 months): 10^8 CFU
- inflammation, microscopically (white blood cells on vaginal smear) (normal, healthy women; 9 women): None of the women had evidence of inflammation
- side effects (normal, healthy women; 9 women): none complained of side effects
- women colonized by the suppository strain (normal, healthy women; 9 women, approximately 10^9 viable cells twice daily for three days, 2-3 days after last capsule): all of the women were colonized
- women remaining colonized (normal, healthy women; 9 women, at 1 month): 8 of 9
- vaginal colonization, Patient 103 (normal, healthy women; four weeks later): still colonized with CTV-05
- vaginal colonization, Patient 102 (normal, healthy women; one month visit): still colonized by L. crispatus CTV-05
- vaginal colonization, Patient 103 (normal, healthy women; one week after use twice daily for 3 days): colonized by CTV-05 as well as by another strain of Lactobacilli
- vaginal colonization, Patient 102 (normal, healthy women; one week visit after use of the suppository): colonized by three strains of Lactobacilli, which included (1) the suppository strain
- vaginal colonization, Patient 102 (normal, healthy women; one year after enrollment): colonized exclusively by the suppository strain
- H2O2 production during storage (H2O2 production): remained stable
- women with normal vaginal flora remaining colonized (women; after one month, gelatin capsule inserted into the vagina): greater than 80%
- side effects associated with use (women; over fifty women in clinical trials): None of the women who received the suppository had any side effects
- loss of viability ([3]; 35° C.): less than 1 log
- loss of viability ([3]; 45° C.): about 2 logs
- time within which viability was rapidly lost ([3]; 55° C.): ≤ 0.5 days
- women successfully colonized by the suppository strain ([4]; suppositories twice daily for seven days, follow-up): 7 of the 10
- women cured of bacterial vaginosis ([4]; suppositories twice daily for seven days, one week follow-up visit): 1 of 10
- side-effects ([4]; twice daily for seven days): None of the women experienced any side-effects
- visual or microscopic evidence of inflammation ([4]; twice daily for seven days): none had either visual or microscopic evidence of inflammation
